# Target: T1, K-Ras G12C (Homo sapiens, UniProt P01116, G12C)
# T1 construct: This protein contained 188 amino acids in total, including an N-terminal 6-Histidine tag; made in house; host or cells: E. coli BL21
# Experiment: CAF assay (% CAF; method in Example 7, not in this part)
# Format: binding
SMILES,"% CAF @ 10 uM, 1h (10 uM compound, 1 h incubation)","% CAF @ 10 uM, 1h (10 uM, 1 h, Table 3)",also measured
"C=CC(=O)N1[C@H](C)CN(c2nc(=O)n3c4c(c(-c5ccc(F)cc5F)c(C(F)(F)F)cc24)SC[C@@H](OC)C3)C[C@@H]1C [Example 503, (3S)-8-((3S,5R)-4-acryloyl-3,5-dimethylpiperazin-1-yl)-11-(2,4-difluorophenyl)-3-methoxy-10-(trifluoromethyl)-3,4-dihydro-2H,6H-[1,4]thiazepino[2,3,4-ij]quinazolin-6-one]",96%,–,–
"C=CC(=O)N1CCN(c2nc(=O)n3c4c(c(-c5ccc(F)cc5F)c(C)cc24)SCC3)[C@@H](C)C1 [Example 115, 7-((S)-4-acryloyl-2-methylpiperazin-1-yl)-10-(2,4-difluorophenyl)-9-methyl-2,3-dihydro-5H-[1,4]thiazino[2,3,4-ij]quinazolin-5-one]",–,94.1%,–
"CC#CC(=O)N1C2CC(=O)CC1CN(c1nc(=O)n3c4c(c(-c5ccc(F)cc5F)c(C(F)(F)F)cc14)SCC3)C2 [Example 453, 7-(9-(but-2-ynoyl)-7-oxo-3,9-diazabicyclo[3.3.1]nonan-3-yl)-10-(2,4-difluorophenyl)-9-(trifluoromethyl)-2,3-dihydro-5H-[1,4]thiazino[2,3,4-ij]quinazolin-5-one]",37%,–,–
"C=CC(=O)N1CCN(c2nc(=O)n3c4c(c(-c5ccc(F)cc5F)c(Cl)cc24)SCC3)CC1 [Example 164, 7-(4-acryloylpiperazin-1-yl)-9-chloro-10-(2,4-difluorophenyl)-2,3-dihydro-5H-[1,4]thiazino[2,3,4-ij]quinazolin-5-one]",–,95.1%,–
"C=CC(=O)N1CCN(c2nc(=O)n3c4c(c(-c5ccc(F)cc5F)c(C(F)(F)F)cc24)SC[C@@H]3CN2CCN(CC(F)F)CC2)[C@@H](C)C1 [Example 19, (3S)-7-((S)-4-acryloyl-2-methylpiperazin-1-yl)-3-((4-(2,2-difluoroethyl)piperazin-1-yl)methyl)-10-(2,4-difluorophenyl)-9-(trifluoromethyl)-2H-[1,4]thiazino[2,3,4-ij]quinazolin-5(3H)-one]",–,–,"% CAF @ 10 μM, 1 h (10 μM, 1 h, Table 4): 96%"
"C=CC(=O)N1CCN(c2nc(=O)n3c4c(c(-c5ccc(F)cc5F)c(Cl)cc24)SC[C@@H]3CC2CCN(C)CC2)[C@@H](C)C1 [Example 423, (3S)-7-((S)-4-acryloyl-2-methylpiperazin-1-yl)-9-chloro-10-(2,4-difluorophenyl)-3-((1-methylpiperidin-4-yl)methyl)-2H-[1,4]thiazino[2,3,4-ij]quinazolin-5(3H)-one]",34.1%,–,–
"C=C(F)C(=O)N1CCN(c2nc(=O)n3c4c(c(-c5ccc(F)cc5F)c(Cl)cc24)SCC3)[C@@H](C)C1 [Example 113, 9-chloro-10-(2,4-difluorophenyl)-7-((S)-4-(2-fluoroacryloyl)-2-methylpiperazin-1-yl)-2,3-dihydro-5H-[1,4]thiazino[2,3,4-ij]quinazolin-5-one]",–,21.7%,–
"C=CC(=O)N1CCN(c2nc(=O)n3c4c(c(-c5ccc(F)cc5F)c(Cl)cc24)SCC3)C[C@H]1C [Example 139, 7-((R)-4-acryloyl-3-methylpiperazin-1-yl)-9-chloro-10-(2,4-difluorophenyl)-2,3-dihydro-5H-[1,4]thiazino[2,3,4-ij]quinazolin-5-one]",–,94.8%,–
"C=CC(=O)N1CCN(c2nc(=O)n3c4c(c(-c5ccc(F)cc5F)c(Cl)cc24)SCC3CN2CCN(C)CC2)[C@@H](C)C1 (stereo partly drawn) [Example 126, 7-((S)-4-acryloyl-2-methylpiperazin-1-yl)-9-chloro-10-(2,4-difluorophenyl)-3-((4-methylpiperazin-1-yl)methyl)-2,3-dihydro-5H-[1,4]thiazino[2,3,4-ij]quinazolin-5-one]",–,33.1%,–
"C=CC(=O)N1CCN(c2nc(=O)n3c4c(c(-c5ccc(F)cc5F)c(Br)cc24)SCC3)[C@@H](C)C1 [Example 142, 7-((S)-4-acryloyl-2-methylpiperazin-1-yl)-9-bromo-10-(2,4-difluorophenyl)-2,3-dihydro-5H-[1,4]thiazino[2,3,4-ij]quinazolin-5-one]",–,94.7%,–
"C[C@H]1CN(C(=O)/C=C/C(F)(F)F)CCN1c1nc(=O)n2c3c(c(-c4ccc(Cl)c(F)c4)c(Cl)cc13)SCC2 [Example 79, (S,E)-9-chloro-10-(4-chloro-3-fluorophenyl)-7-(2-methyl-4-(4,4,4-trifluorobut-2-enoyl)piperazin-1-yl)-2,3-dihydro-5H-[1,4]thiazino[2,3,4-ij]quinazolin-5-one]",–,92%,–
"C=CC(=O)N1C[C@H](C)N(c2nc(=O)n3c4c(c(-c5cc(F)c(F)cc5F)c(C(F)(F)F)cc24)SC[C@@H]3COC)C[C@H]1C [Example 491, (3S)-7-((2S,5R)-4-acryloyl-2,5-dimethylpiperazin-1-yl)-3-(methoxymethyl)-9-(trifluoromethyl)-10-(2,4,5-trifluorophenyl)-2H-[1,4]thiazino[2,3,4-ij]quinazolin-5(3H)-one]",60%,–,–
"C=CC(=O)N1CCN(c2nc(=O)n3c4c(c(-c5ccc(F)cc5F)c(C(F)(F)F)cc24)SC[C@@H]3COC)[C@@H](C)C1 [Example 435, (3S)-7-((S)-4-acryloyl-2-methylpiperazin-1-yl)-10-(2,4-difluorophenyl)-3-(methoxymethyl)-9-(trifluoromethyl)-2H-[1,4]thiazino[2,3,4-ij]quinazolin-5(3H)-one]",95.8%,–,–
"C=CC(=O)N1CCN(c2nc(=O)n3c4c(c(-c5ccc(F)cc5)c(Cl)cc24)SC[C@H]3CC2CCN(CC(F)F)CC2)[C@@H](C)C1 [Example 68, (R)-7-((S)-4-acryloyl-2-methylpiperazin-1-yl)-9-chloro-3-((1-(2,2-difluoroethyl)piperidin-4-yl)methyl)-10-(4-fluorophenyl)-2,3-dihydro-5H-[1,4]thiazino[2,3,4-ij]quinazolin-5-one]",–,87%,–
"C[C@H]1CN(C(=O)/C=C/C(F)(F)F)CCN1c1nc(=O)n2c3c(c(-c4c(F)cc(F)cc4F)c(Cl)cc13)SCC2 [Example 111, (S,E)-9-chloro-7-(2-methyl-4-(4,4,4-trifluorobut-2-enoyl)piperazin-1-yl)-10-(2,4,6-trifluorophenyl)-2,3-dihydro-5H-[1,4]thiazino[2,3,4-ij]quinazolin-5-one]",–,95.2%,–
"C=CC(=O)N1C[C@H](C)N(c2nc(=O)n3c4c(c(-c5cc(Cl)c(F)cc5F)c(Cl)cc24)SC[C@@H]3CN2CCC3(CC2)COC3)C[C@H]1C [Example 449, (3S)-3-(2-oxa-7-azaspiro[3.5]nonan-7-ylmethyl)-7-((2S,5R)-4-acryloyl-2,5-dimethylpiperazin-1-yl)-9-chloro-10-(5-chloro-2,4-difluorophenyl)-2H-[1,4]thiazino[2,3,4-ij]quinazolin-5(3H)-one]",51.6%,–,–

# Now from value to compound, other results behind:
"% CAF @ 10 uM, 1h (10 uM compound, 1 h incubation)","% CAF @ 10 uM, 1h (10 uM, 1 h, Table 3)",SMILES,also measured
72.4%,–,"C=CC(=O)N1CCN(c2nc(=O)n3c4c(c(-c5cc(F)c(F)cc5F)c(C(F)(F)F)cc24)SC[C@@H]3COCOC)[C@@H](C)C1 [Example 522, (3S)-7-((S)-4-acryloyl-2-methylpiperazin-1-yl)-3-((methoxymethoxy)methyl)-9-(trifluoromethyl)-10-(2,4,5-trifluorophenyl)-2H-[1,4]thiazino[2,3,4-ij]quinazolin-5(3H)-one]",–
96.5%,–,"C=CC(=O)N1C[C@H](C)N(c2nc(=O)n3c4c(c(-c5ccc(F)cc5F)c(C(F)(F)F)cc24)SC[C@@H]3COC)C[C@H]1C (atropisomer, axis not shown) [Example 509, (3S,10R)-7-((2S,5R)-4-acryloyl-2,5-dimethylpiperazin-1-yl)-10-(2,4-difluorophenyl)-3-(methoxymethyl)-9-(trifluoromethyl)-2,3-dihydro-5H-[1,4]thiazino[2,3,4-ij]quinazolin-5-one]",–
95.9%,–,"C=CC(=O)N1C[C@H](C)N(c2nc(=O)n3c4c(c(-c5ccc(F)cc5F)c(C(F)(F)F)cc24)SCC2(COC2)C3)C[C@H]1C [Example 588, 8′-((2S,5R)-4-Acryloyl-2,5-dimethylpiperazin-1-yl)-11′-(2,4-difluorophenyl)-10′-(trifluoromethyl)-2′H,4′H,6′H-spiro[oxetane-3,3′-[1,4]thiazepino[2,3,4-ij]quinazolin]-6′-one]",–
97%,–,"C=CC(=O)N1CCN(c2nc(=O)n3c4c(c(-c5cc(Cl)c(F)cc5F)c(C(F)(F)F)cc24)SC[C@H](OC)C3)CC1 [Example 534, (3R)-8-(4-acryloylpiperazin-1-yl)-11-(5-chloro-2,4-difluorophenyl)-3-methoxy-10-(trifluoromethyl)-3,4-dihydro-2H,6H-[1,4]thiazepino[2,3,4-ij]quinazolin-6-one]",–
97%,–,"C=CC(=O)N1CCN(c2nc(=O)n3c4c(c(-c5cc(Cl)c(F)cc5F)c(Cl)cc24)SC[C@H](OC)C3)CC1 [Example 538, (3R)-8-(4-acryloylpiperazin-1-yl)-10-chloro-11-(5-chloro-2,4-difluorophenyl)-3-methoxy-3,4-dihydro-2H,6H-[1,4]thiazepino[2,3,4-ij]quinazolin-6-one]",–
94.1%,–,"C=CC(=O)N1C[C@H](C)N(c2nc(=O)n3c4c(c(-c5cc(Cl)c(F)cc5F)c(C(F)(F)F)cc24)SC[C@@H]3COC)C[C@H]1C (atropisomer, axis not shown) [Example 545, (3S,10R)-7-((2S,5R)-4-acryloyl-2,5-dimethylpiperazin-1-yl)-10-(5-chloro-2,4-difluorophenyl)-3-(methoxymethyl)-9-(trifluoromethyl)-2,3-dihydro-5H-[1,4]thiazino[2,3,4-ij]quinazolin-5-one]",–
98%,–,"C=CC(=O)N1CCN(c2nc(=O)n3c4c(c(-c5ccc(F)cc5)c(Cl)cc24)SC[C@H](OC)C3)[C@@H](C)C1 [Example 528, (R)-8-((S)-4-acryloyl-2-methylpiperazin-1-yl)-10-chloro-11-(4-fluorophenyl)-3-methoxy-3,4-dihydro-2H,6H-[1,4]thiazepino[2,3,4-ij]quinazolin-6-one]",–
74.4%,–,"C=CC(=O)N1CCN(c2nc(=O)n3c4c(c(-c5ccc(F)cc5)c(C(F)(F)F)cc24)SC[C@@H]3COCOC)[C@@H](C)C1 [Example 516, (S)-7-((S)-4-acryloyl-2-methylpiperazin-1-yl)-10-(4-fluorophenyl)-3-((methoxymethoxy)methyl)-9-(trifluoromethyl)-2H-[1,4]thiazino[2,3,4-ij]quinazolin-5(3H)-one]",–
